In PubChem BioAssay (NCI):
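Dose response: 5 concentrations. Exposure: 48 h. Format: 96-well plates. Endpoint: linear interpolation; highest concentration if not reached. GI50: concentration for 50% inhibition of growth. TGI: total growth inhibition.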

Columns and labels:
Test in all cases: DTP human tumour cell line panel, 48 h
[1] = system: RXF 393 renal
[2] = system: TK-10 renal
[3] = system: UACC-62 melanoma
[4] = system: RPMI-8226 leukemia
[5] = system: COLO 205 colon
[6] = system: SK-MEL-28 melanoma
[7] = system: HCT-116 colon
[8] = system: SF-268 CNS
[9] = system: NCI/ADR-RES ovarian
[10] = system: SF-295 CNS
[11] = system: NCI-H23 lung
[12] = system: EKVX NSCLC
[13] = system: DU-145 prostate
[14] = system: OVCAR-8 ovarian
[15] = system: IGROV1 ovarian
[16] = system: NCI-H226 lung
[17] = system: MALME-3M melanoma
[18] = system: SK-OV-3 ovarian
[19] = system: SNB-19 CNS
[20] = system: HOP-92 NSCLC
[21] = system: HS 578T breast
[22] = system: OVCAR-5 ovarian
[23] = system: KM12 colon
[24] = system: MOLT-4 leukemia
[25] = system: HL-60(TB) leukemia
[26] = system: K-562 leukemia
[27] = system: SK-MEL-5 melanoma
[28] = system: NCI-H460 lung
[29] = system: CCRF-CEM leukemia
[30] = system: SN12C renal
[31] = system: PC-3 prostate
[32] = system: MCF7 breast
[33] = system: UO-31 renal
[34] = system: HCC-2998 colon
[35] = system: SR leukemia
[36] = system: 786-0 renal
[37] = system: SW-620 colon
[38] = system: OVCAR-4 ovarian
[39] = system: SK-MEL-2 melanoma
[40] = system: M14 melanoma
[41] = system: LOX IMVI melanoma
[42] = system: A498 renal
[43] = system: OVCAR-3 ovarian
[44] = system: SNB-75 CNS
[45] = system: A549 NSCLC
[46] = system: ACHN renal
[47] = system: HOP-62 NSCLC
[48] = system: T-47D breast
[49] = system: MDA-MB-231 breast
[50] = system: SF-539 CNS
[51] = system: HCT-15 colon
[52] = system: UACC-257 melanoma
[53] = system: HT29 colon
[54] = system: NCI-H522 lung
[55] = system: MDA-MB-435
[56] = system: BT-549 breast
[57] = system: U251 CNS
[58] = system: CAKI-1 renal
[59] = system: MDA-N

**Q.** What does the source list for `CN1CCN(Cc2ccc(NC(=O)c3ccc(C(C)(C)C)c(C#Cc4cnc5cccnn45)c3)cc2C(F)(F)F)CC1`?
**A.** GI50 [1]: 1.8 µM; TGI [1]: 3.4 µM; GI50 [2]: 2.62 µM; TGI [2]: 7.02 µM; GI50 [3]: 2.08 µM; TGI [3]: 4.37 µM; GI50 [4]: 2.54 µM; TGI [4]: 6.11 µM; GI50 [5]: 1.8 µM; TGI [5]: 3.43 µM; GI50 [6]: 1.93 µM; TGI [6]: 3.73 µM; GI50 [7]: 1.67 µM; TGI [7]: 3.08 µM; GI50 [8]: 1.87 µM; TGI [8]: 3.82 µM; GI50 [9]: 2.34 µM; TGI [9]: 5.86 µM; GI50 [10]: 1.97 µM; TGI [10]: 3.96 µM; GI50 [11]: 1.85 µM; TGI [11]: 3.89 µM; GI50 [12]: 5.8 µM; TGI [12]: 19.3 µM; GI50 [13]: 1.89 µM; TGI [13]: 3.39 µM; GI50 [14]: 2.58 µM; TGI [14]: 5.61 µM; GI50 [15]: 2.55 µM; TGI [15]: 6.99 µM; GI50 [16]: 4.63 µM; TGI [16]: 20.1 µM; GI50 [17]: 1.78 µM; TGI [17]: 3.97 µM; GI50 [18]: 11.3 µM; TGI [18]: 24.4 µM; GI50 [19]: 2.1 µM; TGI [19]: 4.14 µM; GI50 [20]: 12.1 µM; TGI [20]: 27.1 µM; GI50 [21]: 10.4 µM; TGI [21]: 39.2 µM; GI50 [22]: 2.71 µM; TGI [22]: 7.18 µM; GI50 [23]: 0.861 µM; TGI [23]: 2.38 µM; GI50 [24]: 1.77 µM; TGI [24]: 4 µM; GI50 [25]: 2.62 µM; TGI [25]: 6.5 µM; GI50 [26]: 0.932 µM; TGI [26]: 2.6 µM; GI50 [27]: 2.16 µM; TGI [27]: 4.86 µM; GI50 [28]: 2.13 µM; TGI [28]: 4.52 µM; GI50 [29]: 1.93 µM; TGI [29]: 4.63 µM; GI50 [30]: 9.62 µM; TGI [30]: 26.4 µM; GI50 [31]: 1.89 µM; TGI [31]: 4.12 µM; GI50 [32]: 1.82 µM; TGI [32]: 3.46 µM; GI50 [33]: 1.93 µM; TGI [33]: 3.9 µM; GI50 [34]: 1.83 µM; TGI [34]: 3.38 µM; GI50 [35]: 0.199 µM; TGI [35]: 0.512 µM; GI50 [36]: 1.67 µM; TGI [36]: 3.24 µM; GI50 [37]: 2.04 µM; TGI [37]: 4.09 µM; GI50 [38]: 4.64 µM; TGI [38]: 19.7 µM; GI50 [39]: 8.8 µM; TGI [39]: 22.5 µM; GI50 [40]: 1.8 µM; TGI [40]: 3.44 µM; GI50 [41]: 1.52 µM; TGI [41]: 2.87 µM; GI50 [42]: 7.18 µM; TGI [42]: 23.4 µM; GI50 [43]: 3.55 µM; TGI [43]: 12.2 µM; GI50 [44]: 1.59 µM; TGI [44]: 3.09 µM; GI50 [45]: 1.91 µM; TGI [45]: 3.57 µM; GI50 [46]: 1.99 µM; TGI [46]: 3.69 µM; GI50 [47]: 1.76 µM; TGI [47]: 3.35 µM; GI50 [48]: 2.02 µM; TGI [48]: 5.41 µM; GI50 [49]: 1.97 µM; TGI [49]: 4.14 µM; GI50 [50]: 2.03 µM; TGI [50]: 4.14 µM; GI50 [51]: 1.21 µM; TGI [51]: 2.66 µM; GI50 [52]: 1.89 µM; TGI [52]: 3.68 µM; GI50 [53]: 1.68 µM; TGI [53]: 3.4 µM; GI50 [54]: 2.2 µM; TGI [54]: 3.95 µM; GI50 [55]: 1.5 µM; TGI [55]: 2.95 µM; GI50 [56]: 15 µM; TGI [56]: 28.9 µM; GI50 [57]: 1.97 µM; TGI [57]: 3.62 µM; GI50 [58]: 12.1 µM; TGI [58]: 26.7 µM

**Q.** Which results are given for `COC(=O)c1cc2c3c(cc(NCCN)c2[nH]1)N(C(=O)c1cc2cc(OC)c(OC)c(OC)c2[nH]1)CC3CCl` (stereo unspecified)?
**A.** TGI [2]: 2.95 µM; TGI [3]: 0.176 µM; TGI [59]: 0.207 µM; TGI [5]: 0.146 µM; TGI [6]: 0.48 µM; TGI [7]: 0.0256 µM; TGI [10]: 0.858 µM; TGI [12]: 0.827 µM; TGI [13]: 0.0516 µM; TGI [16]: 0.178 µM; TGI [17]: 0.123 µM; TGI [18]: 5.12 µM; TGI [19]: 0.0517 µM; TGI [22]: 0.42 µM; TGI [26]: > 100 µM; TGI [27]: 0.165 µM; TGI [28]: 0.536 µM; TGI [31]: 1.01 µM; TGI [33]: 0.65 µM; TGI [34]: 0.182 µM; TGI [36]: 0.283 µM; TGI [38]: 0.31 µM; TGI [39]: 0.164 µM; TGI [40]: 0.253 µM; TGI [43]: 0.569 µM; TGI [45]: 0.481 µM; TGI [46]: 0.251 µM; TGI [47]: 0.48 µM; TGI [49]: 0.467 µM; TGI [51]: 1.42 µM; TGI [53]: 0.213 µM; TGI [55]: 0.293 µM; TGI [57]: 0.0366 µM

**Q.** What does the source list for `COc1cc(/C=C/c2cc(=O)cc(/C=C/c3ccc(O)c(OC)c3)o2)ccc1O`?
**A.** TGI [1]: > 55.2 µM; TGI [2]: > 100 µM; TGI [3]: > 100 µM; TGI [4]: > 20.7 µM; TGI [5]: > 100 µM; TGI [6]: > 100 µM; TGI [7]: > 100 µM; TGI [8]: > 100 µM; TGI [9]: > 100 µM; TGI [10]: > 100 µM; TGI [11]: > 100 µM; TGI [12]: > 100 µM; TGI [13]: > 100 µM; TGI [14]: > 100 µM; TGI [15]: > 100 µM; TGI [16]: 98.3 µM; TGI [17]: > 100 µM; TGI [18]: > 100 µM; TGI [19]: > 100 µM; TGI [20]: > 100 µM; TGI [21]: > 100 µM; TGI [22]: > 100 µM; TGI [23]: > 100 µM; TGI [24]: > 100 µM; TGI [25]: > 100 µM; TGI [26]: > 100 µM; TGI [27]: > 100 µM; TGI [28]: > 100 µM; TGI [30]: > 100 µM; TGI [31]: > 100 µM; TGI [32]: > 100 µM; TGI [33]: > 100 µM; TGI [34]: > 100 µM; TGI [35]: > 100 µM; TGI [36]: > 100 µM; TGI [37]: > 100 µM; TGI [38]: > 100 µM; TGI [39]: > 100 µM; TGI [40]: > 100 µM; TGI [41]: > 100 µM; TGI [42]: > 100 µM; TGI [43]: > 100 µM; TGI [44]: > 95 µM; TGI [45]: > 100 µM; TGI [46]: > 100 µM; TGI [47]: > 63.8 µM; TGI [48]: > 93.3 µM; TGI [49]: > 100 µM; TGI [50]: > 100 µM; TGI [51]: > 100 µM; TGI [52]: > 100 µM; TGI [53]: > 100 µM; TGI [54]: > 100 µM; TGI [55]: > 100 µM; TGI [56]: > 100 µM; TGI [57]: > 100 µM; TGI [58]: > 100 µM
